Source: patent US20250034216A1, “STEREOSELECTIVE COVALENT LIGANDS FOR ONCOGENIC AND IMMUNOLOGICAL PROTEINS” (The Scripps Research Institute, priority 2021, published 2025)
Peptide text beside a SMILES is read from it. * marks the point of attachment. Cbz = O=C(OCc1ccccc1)*

Legend:
[1] = test system: overall MHC-I presentation in E.G7-Ova cells; assay: FACS analysis with citric acid wash; format: cell-based, mouse; details: 4 h treatment, recovery up to 4 h
Description: (§1) E.G7-Ova cells (2 million/mL) were treated with compounds for 4 hours, washed with PBS, and then washed with 1 mL of 131 mM citric acid for 2 minutes, quenched with 1 mL 66 mM NaH2PO4, and then washed with PBS 3 times. Cells were then resuspended in warm RPMI and allowed to recover for the indicated period, after which cells were washed with PBS and transferred to 96 well plates for staining. Each well was washed with 200 μL PBS, and then stained for 20 minutes with 50 μL of staining solution: 1:1000 fixable near-IR LIVE/DEAD stain (Invitrogen) and 1:200 dilution of anti-SIINFEKL (BioLegend) or anti-Kb (BioLegend) antibody in FACS buffer (2% FBS in PBS supplemented with PenStrep and sterile filtered). Additional wells were used as unstained or singly-stained controls. After staining, cells were washed with PBS, then fixed in 200 μL 4% paraformaldehyde in PBS for 15 minutes. Cells were resuspended in 75 μL FACS buffer and analyzed on a Novocyte flow cytometer. The corresponding data in FIG. 2J are presented as the average percentage of median fluorescence intensity relative to DMSO treated control±SD from n=4 replicates. The corresponding data in FIG. 2K are presented as the average percentage of MFI relative to DMSO treated control±SD from n=3 replicates. Statistical analysis was performed using GraphPad PRISM Version 9.0.0.

[2] = test system: SIINFEKL presentation in E.G7-Ova cells; assay: FACS analysis with citric acid wash; format: cell-based, mouse; details: 4 h treatment, recovery up to 4 h
Description: as §1

[3] = biological target: T1, recombinant FLAG-PSME1 (PSME1_C22) (Homo sapiens, UniProt Q06323); assay: Gel-based ABPP for PSME1 cysteine engagement; format: binding; details: HEK293T lysates, WT or C22A FLAG-PSME1, 2.5 μM, 30 min
T1 construct: FLAG (C); expressed in transfected cells; host or cells: HEK293T (lysate treated in vitro)
Description: C-terminally FLAG-tagged PSME1 WT or C22A were transiently expressed in HEK293T cells, harvested 48 hours later, then cells were divided into aliquots, flash frozen and stored at −80 C. On the day of the experiment, an aliquot of cells were thawed, lysed by sonication in ice-cold PBS supplemented with cOmplete protease inhibitors (1 tablet/10 mL of PBS). normalized to 2.0 mg/mL, and divided into 25 μL aliquots. 1 μL of DMSO or compound (25× stock) was incubated with lysates for 1.5 hours at RT, followed by incubation with 1 μL of 62.5 μM MY-11B click probe (final concentration […]) for an additional 30 minutes. Reagents for the CuAAC click reaction were pre-mixed prior to addition to the samples. After 1 hour of click labeling, 4×SDS running buffer was added to samples, which were then analyzed by SDS-PAGE. ImageJ was used to quantify rhodamine band intensities, and GraphPad PRISM Version 9.0.0 was used to generate IC50 curves (four-parameter variable slope least squares regression).

SF3B1 (~150 kDa protein) = biological target: T2, SF3B1 (~150 kDa protein) (Homo sapiens, UniProt O75533+Q7RTV0); assay: Gel-based ABPP for SF3B1 cysteine engagement; format: binding; details: 22Rv1 cells, 1 μM alkyne probe, 1 h
T2 construct: Cysteine engagement data from 22Rv1 cells treated; endogenous in cells; host or cells: 22Rv1
Description: 22Rv1 cells were treated with indicated compounds for 24 h, chased with click probe for 1 h in situ, harvested and lysed in PBS with protease inhibitors (cOmplete), and then normalized to 2.0 mg/mL. Reagents for the CuAAC click reaction were pre-mixed prior to addition to the samples (3 μL of click reaction mix for 25 μL of lysate). After 1 hour of click labeling, 4×SDS running buffer was added to samples, which were then analyzed by SDS-PAGE.

p27 = assay: anti-p27 western blot; format: cell-based, human; details: 22Rv1 cells, 24 h
[4] = test system: mRNA splicing in 22Rv1 cells; assay: RNA sequencing, alternative splicing (rMATS); format: cell-based, human; details: 8 hr, RNA-seq
Description: RNA sequencing libraries were prepared using the NEBNext Ultra II RNA Library Prep Kit for Illumina following manufacturer's instructions (NEB, Ipswich, MA, USA). mRNAs were first enriched with Oligo(dT) beads. Enriched mRNAs were fragmented for 15 minutes at 94° C. First strand and second strand cDNAs were subsequently synthesized. cDNA fragments were end repaired and adenylated at 3′ends, and universal adapters were ligated to cDNA fragments, followed by index addition and library enrichment by limited-cycle PCR. The sequencing libraries were validated on the Agilent TapeStation (Agilent Technologies, Palo Alto, CA, USA), and quantified by using Qubit 2.0 Fluorometer (Invitrogen, Carlsbad, CA) as well as by quantitative PCR (KAPA Biosystems, Wilmington, MA, USA). FASTQ files were first trimmed using Trim_galore (v0.6.4) to remove sequencing adapters and low quality (Q<15) reads. Trimmed sequencing reads were aligned to the human Hg19 reference genome (GENCODE, GRCh37.p13) using STAR (v2.7.5). SAM files were subsequently converted to BAM files, sorted, and indexed using samtools (v1.9). […] Read counting across genomic features was performed using featureCounts (part of the subread package; v1.5.0) using the following parameters: -p -T 20 -O -F GTF -t exon. […]
For quantification of alternative RNA splicing, BAM files generated by STAR/Samtools were analyzed using rMATS (v4.1.1) using the GENCODE (v19) GTF annotation for Hg19 (GRCh37.p13) and the following parameters: -t paired --libType fr-unstranded—readLength 150—novelSS. To utilize reads shorted than 150b.p. resulting from adapter and/or QC trimming by trim_galore, rMATS was programmed to accept soft-clipped reads of variable length. Enumeration of isoform counts was performed using only reads that span the splice junction directly. To identify high confidence AS events, events were considered significant if (i) the inclusion level difference was greater than 20% compared to DMSO, (ii) the False Discovery Rate (FDR) was smaller than 0.05, and (iii) there were a minimum of 20 reads mapping to the splice junction. […]

22Rv1 cells = assay: Proliferation assay (CellTiter Glo); format: cell-based, human; details: 72 h
Description: Cells were seeded at 5000 cells per well (50 μL medium) in 96-well flat bottom white wall plates. After 24 h, 50 μL of medium containing DMSO or compound dilutions (2× final concentration from 1000× stocks) were added to the wells. At the time of compound addition, a reference plate to determine the cell population density at time 0 (TO) was assayed using CellTiter Glo reagent (50 μL added to each well). After 72 h in culture, the remaining plates were assayed using CellTiter Glo. After 30 min of shaking at room temperature, luminescence was analyzed using a CLARIOstar (BMG Labtech) plate reader. Raw values were normalized using GraphPad PRISM software version 9.0.0. Lines of best fit were generated using a four-parameter variable slope least squares regression.

[5] = test system: SF3B1 interacting proteins; assay: SF3B1 co-immunoprecipitation-MS; format: cell-based, human; details: HEK293T cells, 5 μM WX-02-23 or 10 nM pladienolide B, 3 h
Description: HEK293T cells were treated in situ with DMSO, 5 μM of WX-02-23/WX-02-43, or 10 nM pladienolide B for 3 hours. Cells were harvested, washed with ice-cold PBS, and lysed in ColP lysis buffer (0.5% NP-40, 100 mM EPPS, 150 mM NaCl, cOmplete protease inhibitor). Lysates centrifuged at 16,000 g for 3 minutes, normalized to 2.0 mg/mL and 500 μL of each lysate was aliquoted to a clean eppendorf tube.
Lysates were incubated with 5 μL of anti-IgG or anti-SF3B1 (CST) for 2 hours at 4 C, followed by 1 hour with 25 μL of protein-A agarose beads. Bead were washed twice with ColP lysis buffer, and then twice with 100 mM EPPS, followed by elution with 8 M urea in EPPS at 65 C for 10 min. […] Samples were then trypsinized at 37 C overnight (2 ug of trypsin per sample), then TMT labeled and desalted.

T2 sequence (O75533 whole entry): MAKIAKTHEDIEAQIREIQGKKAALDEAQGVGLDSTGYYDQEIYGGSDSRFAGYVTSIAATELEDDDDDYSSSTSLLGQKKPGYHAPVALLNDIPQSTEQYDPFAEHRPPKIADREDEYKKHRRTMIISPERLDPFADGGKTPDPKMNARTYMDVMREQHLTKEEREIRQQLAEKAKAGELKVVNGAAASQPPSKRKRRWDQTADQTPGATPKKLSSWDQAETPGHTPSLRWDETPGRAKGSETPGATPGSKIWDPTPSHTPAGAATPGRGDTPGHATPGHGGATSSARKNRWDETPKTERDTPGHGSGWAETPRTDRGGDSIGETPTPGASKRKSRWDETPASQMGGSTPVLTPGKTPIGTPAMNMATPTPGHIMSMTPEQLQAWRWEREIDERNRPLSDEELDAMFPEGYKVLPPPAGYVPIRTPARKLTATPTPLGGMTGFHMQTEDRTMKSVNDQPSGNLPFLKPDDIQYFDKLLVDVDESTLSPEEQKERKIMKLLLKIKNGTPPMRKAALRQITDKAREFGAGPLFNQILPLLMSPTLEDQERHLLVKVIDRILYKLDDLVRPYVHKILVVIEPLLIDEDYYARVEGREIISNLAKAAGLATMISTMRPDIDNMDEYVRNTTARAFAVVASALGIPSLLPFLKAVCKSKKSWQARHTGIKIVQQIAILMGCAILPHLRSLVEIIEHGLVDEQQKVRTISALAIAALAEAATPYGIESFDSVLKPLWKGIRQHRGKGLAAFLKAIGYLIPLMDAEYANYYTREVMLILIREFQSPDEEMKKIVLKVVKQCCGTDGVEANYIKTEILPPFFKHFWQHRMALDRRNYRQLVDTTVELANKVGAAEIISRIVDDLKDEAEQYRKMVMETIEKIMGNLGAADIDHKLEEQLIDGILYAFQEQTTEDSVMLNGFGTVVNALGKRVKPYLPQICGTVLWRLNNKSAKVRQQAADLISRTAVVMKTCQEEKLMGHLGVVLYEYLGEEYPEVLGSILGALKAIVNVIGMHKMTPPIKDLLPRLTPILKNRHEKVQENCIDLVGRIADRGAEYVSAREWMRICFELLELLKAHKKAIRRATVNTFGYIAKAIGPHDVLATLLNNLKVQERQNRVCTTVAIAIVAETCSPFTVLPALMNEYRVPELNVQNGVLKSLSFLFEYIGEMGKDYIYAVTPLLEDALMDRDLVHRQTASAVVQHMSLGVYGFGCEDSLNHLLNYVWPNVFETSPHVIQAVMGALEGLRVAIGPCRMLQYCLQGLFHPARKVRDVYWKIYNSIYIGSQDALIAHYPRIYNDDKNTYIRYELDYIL
T2 sequence (Q7RTV0 whole entry): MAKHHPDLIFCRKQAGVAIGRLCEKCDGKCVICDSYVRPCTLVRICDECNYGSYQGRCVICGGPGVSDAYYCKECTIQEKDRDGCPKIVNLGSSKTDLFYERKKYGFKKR
T2 sequence (Q15393 whole entry partner): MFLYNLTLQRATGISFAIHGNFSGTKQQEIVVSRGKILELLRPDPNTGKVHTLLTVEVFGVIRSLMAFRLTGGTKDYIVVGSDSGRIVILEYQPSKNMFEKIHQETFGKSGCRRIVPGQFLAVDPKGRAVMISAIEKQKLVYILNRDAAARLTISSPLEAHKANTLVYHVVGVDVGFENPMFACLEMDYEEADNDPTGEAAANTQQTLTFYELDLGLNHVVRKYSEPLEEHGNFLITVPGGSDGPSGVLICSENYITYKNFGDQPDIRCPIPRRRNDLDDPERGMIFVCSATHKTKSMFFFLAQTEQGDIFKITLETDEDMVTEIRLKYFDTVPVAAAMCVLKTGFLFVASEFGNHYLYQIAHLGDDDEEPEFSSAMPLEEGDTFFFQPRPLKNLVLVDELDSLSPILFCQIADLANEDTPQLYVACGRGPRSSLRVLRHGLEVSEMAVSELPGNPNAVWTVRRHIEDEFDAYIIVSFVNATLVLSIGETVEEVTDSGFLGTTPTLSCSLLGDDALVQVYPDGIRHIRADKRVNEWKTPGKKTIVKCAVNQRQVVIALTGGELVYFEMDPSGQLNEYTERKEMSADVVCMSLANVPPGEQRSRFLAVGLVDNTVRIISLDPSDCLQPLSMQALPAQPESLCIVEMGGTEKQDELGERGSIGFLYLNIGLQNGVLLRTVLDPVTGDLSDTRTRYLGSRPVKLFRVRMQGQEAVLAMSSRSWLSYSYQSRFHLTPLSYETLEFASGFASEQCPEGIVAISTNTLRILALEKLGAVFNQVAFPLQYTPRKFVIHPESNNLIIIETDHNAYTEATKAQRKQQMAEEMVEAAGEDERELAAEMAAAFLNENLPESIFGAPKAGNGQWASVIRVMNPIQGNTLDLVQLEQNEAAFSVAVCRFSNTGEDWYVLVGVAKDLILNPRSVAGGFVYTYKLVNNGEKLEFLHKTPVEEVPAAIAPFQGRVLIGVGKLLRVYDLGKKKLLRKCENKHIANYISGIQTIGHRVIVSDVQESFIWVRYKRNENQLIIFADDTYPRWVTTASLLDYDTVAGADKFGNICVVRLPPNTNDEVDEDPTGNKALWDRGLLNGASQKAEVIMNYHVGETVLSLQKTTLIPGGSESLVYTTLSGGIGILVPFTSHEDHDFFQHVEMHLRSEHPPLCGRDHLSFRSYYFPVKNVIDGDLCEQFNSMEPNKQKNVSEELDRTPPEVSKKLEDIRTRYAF
T2 sequence (Q9BWJ5 whole entry partner): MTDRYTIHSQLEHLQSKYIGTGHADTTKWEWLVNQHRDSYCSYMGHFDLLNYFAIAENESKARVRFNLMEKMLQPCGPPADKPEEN
T1 sequence (Q06323 whole entry): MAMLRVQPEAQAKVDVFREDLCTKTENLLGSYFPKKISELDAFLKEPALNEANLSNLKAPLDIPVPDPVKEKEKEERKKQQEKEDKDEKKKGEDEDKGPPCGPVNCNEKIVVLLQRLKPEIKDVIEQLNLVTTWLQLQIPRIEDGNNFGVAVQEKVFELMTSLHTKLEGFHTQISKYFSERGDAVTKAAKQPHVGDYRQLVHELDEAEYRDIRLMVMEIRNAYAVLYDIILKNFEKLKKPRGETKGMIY

CC(C)C[C@@H](C=O)NC(=O)[C@H](CC(C)C)NC(=O)[C@H](CC(C)C)NC(=O)OCc1ccccc1 [MG132, reference compound] (Cbz-Leu-Leu-Leu-aldehyde)
overall MHC-I presentation after acid wash [1]: suppressed both SIINFEKL peptide and MHC-I presentation
SIINFEKL presentation after acid wash [2]: suppressed both SIINFEKL peptide and MHC-I presentation

C#Cc1ccc([C@H]2CN(C(=O)C=C)[C@H]2C(=O)Nc2cccc3cccnc23)cc1 [MY-11B, (2R,3S)-1-acryloyl-3-(4-ethynylphenyl)-N-(quinolin-8-yl)azetidine-2-carboxamide]
alkyne probe labeling of PSME1_C22 (CuAAC, azide-rhodamine) [3]: site-specific and stereoselective engagement

C#CCOc1ccc2[nH]c3c(c2c1)C[C@@H](C(=O)OC)N(C(=O)C=C)[C@@H]3c1ccc2c(c1)OCO2 [WX-01-10, methyl (1R,3S)-2-acryloyl-1-(benzo[d][1,3]dioxol-5-yl)-6-(prop-2-yn-1-yloxy)-2,3,4,9-tetra-hydro-1H-pyrido[3,4-b]indole-3-carboxylate]
alkyne probe labeling of ~150 kDa protein (SF3B1 (~150 kDa protein)): labeled an ˜150 kDa protein

pladienolide B [reference compound]
p27 expression (p27): induced expression of p27
mRNA splicing changes [4]: induction of both intron retention and exon skipping events
anti-proliferative effect (22Rv1 cells): strong anti-proliferative activity
SF3B1 interactions (DDX42 association) [5]: similar, but not identical reshaping of SF3B1 interactions
